Results on ten compounds are retold here after patent US10889569B2, “Condensed ring group azacyclobutyl triazole derivative, preparation method therefor and use thereof in medicine” (Jiangsu Hengrui Medicine Co., Ltd., priority 2016, dated 2021).

One may read the IC50 as the point on the concentration scale where inhibition reaches its midpoint.

Holding throughout (assay type): cell-based
One test concerns the target human V1aR (Homo sapiens (Human), UniProt P37288). The experiment in a line: Inhibition activity on human V1aR (Fluo-4 calcium assay, HEK293/human V1aR stably transfected cells). The conditions noted are these: vasopressin 3 nM. On the procedure: The inhibition effect of the compounds of the present invention on the activity of human V1 aR protein expressed in HEK293/human V1aR stably transfected cells was determined by the following experimental method:
The pcDNA3.1-V1aR plasmid was transferred into HEK293 cells with the Lipofectamine® 3000 transfection reagent; G418 was added on the next day to screen, and monoclonal cell lines were selected.
(§1) HEK293/human V1aR stably transfected cells were inoculated in a 96-well plate with an inoculation density of 25,000 cells/well one day in advance. On the next day, a loading buffer containing Fluo-4 dye was formulated using the reagents in the Fluo-4 NW calcium assay kit, and the culture medium was then removed; 100 μl of the loading buffer containing Fluo-4 dye were added to each well, and the plate was incubated at 37° C. for 30 minutes. After that, the plate was moved to room temperature and equilibrated for 10 minutes. The compounds were formulated at 10^6, 10^5, 10^4, 10^3, 10^2 and 10^1 nM. 1 μl of the compounds in each concentration was added to each well, and the plate was incubated at room temperature for 10 minutes. 50 μl of vasopressin polypeptide (3 nM) were automatically added by the machine, and the values were immediately detected at 494/516 nM by the flexstation 3 microplate reader. IC50 values of the compounds were calculated by Graphpad prism software using fluorescence signals corresponding to different concentrations.
The inhibition activity of the compounds of the present invention on human V1aR was determined by the above test, and the obtained IC50 values are shown in Table 2.

The next test has as its target human V2R (Homo sapiens (Human), UniProt P30518). In words: Inhibition activity on human V2R (cAMP HTRF assay, HEK293/human V2R pool cells). As to conditions: vasopressin. On the procedure:
The inhibition effect of the compounds of the present invention on the activity of human V2R protein expressed in HEK293/human V2R cells was determined by the following experimental method:
The pcDNA3.1-V2R plasmid was transferred into HEK293 cells with the Lipofectamine® 3000 transfection reagent; G418 was added on the next day, and the HEK293/human V2R pool cell lines were obtained.
HEK293/human V2R pool cells were dissociated with the cell dissociation solution (enzyme-free), thereby dissociating the cells from the cell culture dish into individual cells. Then the cell solution was blown well, and centrifuged to remove the supernatant. The cells were resuspended in the test buffer 1 (1×HBSS+20 mM HEPES+0.1% BSA) and counted. The cell density was adjusted to 1250 cells/5 μl, i.e., 2.5*10^5/ml.
The compounds were formulated into a series of concentrations of 20 mM, 6.67 mM, 2.22 mM, 0.74 mM, 0.25 mM, 0.08 mM, 27.4 μM, 9.14 μM, 3.05 μM, 1.02 μM, 0.34 μM and 0 μM (DMSO) with pure DMSO. The compounds were then diluted into a 4-fold working concentration solution with the test buffer 2 (test buffer 1+1 mM IBMX).
Agonist: 460 μM vasopressin was used as the mother liquor, which was formulated at 2 μM with DMSO, and then diluted to 0.5 nM with the test buffer 2.
Standards: The first point was 20 μl of a stock solution (2848 nM), which was diluted successively to a total of eleven concentrations in a 4-fold concentration gradient with the test buffer 1 from the second point.
1. The well-mixed cells were added to a 384-well plate (5 μl/well) without changing the tip.
2. The test compounds and positive compound formulated were added (2.5 μl/well), and the tips were changed.
3. The plate was centrifuged at 1000 rpm for 1 min, shaken for 30 sec to mix well, and incubated at room temperature for 30 min.
4. The standard curve wells were added with the test buffer 2 (5 μl/well).
5. The formulated agonist was added (2.5 μl/well), and the tips were changed; the plate was centrifuged at 1000 rpm for 1 min, shaken for 30 sec to mix well, and incubated at room temperature for 30 min.
6. cAMP-d2 (a component in the cAMP dynamic 2 kit) and Anti-cAMP-Eu-Cryptate (a component in the cAMP dynamic 2 kit) were formulated in the dark, which were then mixed well with cAMP lysate (a component in the cAMP dynamic 2 kit) in a ratio of 1:4. Each well was added with the formulated cAMP-d2 solution (5 μl/well), followed by addition of Anti-cAMP-Eu-Cryptate (5 μl/well). The plate was shaken for 30 sec to mix well, and incubated in the dark at room temperature for 1 h.
The HTRF Signals were Read by the PheraStar Multi-Function Microplate Reader.
The data in this test was processed using the data processing software Graphpad Prism.
The inhibition activity of the compounds of the present invention on human V2R was determined by the above test, and the IC50 values obtained are shown in Table 4.
A general note: Time-resolved FRET reads energy transfer from a long-lived donor to a nearby acceptor.

In a further test the target is human V1bR (Homo sapiens, UniProt P47901). In words: Inhibition activity on human V1bR (Fluo-4 calcium assay, HEK293/human V1bR pool cells). As to conditions: vasopressin 3 nM. On the procedure: The inhibition effect of the compounds of the present invention on the activity of human V1bR protein expressed in HEK293/human V1bR cells was determined by the following experimental method:
The pcDNA3.1-V1bR plasmid was transferred into HEK293 cells with the Lipofectamine® 3000 transfection reagent; G418 was added on the next day, and the HEK293/human V1bR pool cell lines were obtained.
as §1, with “HEK293/human V1bR pool” for “HEK293/human V1aR stably transfected”, “formulated into” for “formulated at”
The inhibition activity of the compounds of the present invention on human V1bR was determined by the above test, and the obtained IC50 values are shown in Table 3.

A further test deals with human OTR (Homo sapiens, UniProt P30559). The experiment in a line: Inhibition activity on human OTR (Fluo-4 calcium assay, HEK293/human OTR stably transfected cells). The conditions noted are these: oxytocin 3 nM. On the procedure: The inhibition effect of the compounds of the present invention on the activity of human OTR protein expressed in HEK293/human OTR stably transfected cells was determined by the following experimental method:
The pcDNA3.1-hOTR plasmid was transferred into HEK293 cells with the Lipofectamine® 3000 transfection reagent; G418 was added on the next day to screen, and monoclonal cell lines were selected.
as §1, with “OTR” for “V1aR”, “oxytocin” for “vasopressin”
The inhibition activity of the compounds of the present invention on human OTR was determined by the above test, and the obtained IC50 values are shown in Table 1.

human V2R, sequence (P30518 whole entry): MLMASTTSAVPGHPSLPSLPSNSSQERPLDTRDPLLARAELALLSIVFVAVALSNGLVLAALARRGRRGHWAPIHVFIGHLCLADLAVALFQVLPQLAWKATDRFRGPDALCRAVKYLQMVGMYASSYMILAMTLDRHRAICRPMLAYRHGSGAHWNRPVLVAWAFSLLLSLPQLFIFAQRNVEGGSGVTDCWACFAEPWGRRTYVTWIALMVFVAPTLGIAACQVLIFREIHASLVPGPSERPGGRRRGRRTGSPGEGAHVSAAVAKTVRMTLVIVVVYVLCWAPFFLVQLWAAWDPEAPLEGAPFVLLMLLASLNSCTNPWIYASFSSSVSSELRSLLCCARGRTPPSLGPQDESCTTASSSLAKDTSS
human V1aR, sequence (P37288 whole entry): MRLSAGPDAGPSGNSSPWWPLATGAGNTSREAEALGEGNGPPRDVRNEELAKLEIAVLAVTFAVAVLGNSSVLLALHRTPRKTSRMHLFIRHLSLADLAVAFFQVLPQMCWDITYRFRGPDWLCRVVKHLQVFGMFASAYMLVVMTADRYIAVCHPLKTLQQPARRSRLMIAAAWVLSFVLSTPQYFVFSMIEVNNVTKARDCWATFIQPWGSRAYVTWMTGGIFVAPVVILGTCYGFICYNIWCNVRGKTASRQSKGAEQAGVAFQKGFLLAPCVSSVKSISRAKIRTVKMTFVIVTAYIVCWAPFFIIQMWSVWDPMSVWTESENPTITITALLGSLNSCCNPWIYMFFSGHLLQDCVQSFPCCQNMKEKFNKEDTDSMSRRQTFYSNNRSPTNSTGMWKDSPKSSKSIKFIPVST

As for `COCc1nnc(N2CC(c3csc4cc(F)ccc34)C2)n1-c1ccc(OC)nc1` [Example 9, 5-(3-(3-(6-Fluorobenzo[b]thiophen-3-yl)azetidin-1-yl)-5-(methoxymethyl)-4H-1,2,4-triazol-4-yl)-2-methoxypyridine], the IC50 at human V1aR stood at 1.2 µM; at human V2R, 12.5 µM; at human V1bR, 42.7 µM; on human OTR, 0.04 µM.
On to `COCc1nnc(N2CC(n3cc(Cl)c4cc(F)ccc43)C2)n1-c1ccc(OC)nc1` [Example 10, 3-Chloro-5-fluoro-1-(1-(5-(methoxymethyl)-4-(6-methoxypyridin-3-yl)-4H-1,2,4-triazol-3-yl)azetidin-3-yl)-1H-indole], for which the IC50 on human V1aR stood at 5.7 µM; against human V2R, 20.7 µM; at human V1bR, 12.4 µM; on human OTR, 0.091 µM.
In the same order, the values of `COCc1nnc(N2CC(c3cn(C)c4cc(F)ccc34)C2)n1-c1ccc(OC)nc1` [Example 14, 6-Fluoro-3-(1-(5-(methoxymethyl)-4-(6-methoxypyridin-3-yl)-4H-1,2,4-triazol-3-yl)azetidin-3-yl)-1-methyl-1H-indole] are 10.9 µM, 11.8 µM, 25.8 µM and 0.13 µM.
The like results for `COCc1nnc(N2CC(C3CCOc4cc(F)ccc43)C2)n1-c1ccc(OC)nc1` (centres unmarked) [Example 21, 5-(3-(3-(7-Fluorobenzodihydropyran-4-yl)azetidin-1-yl)-5-(methoxymethyl)-4H-1,2,4-triazol-4-yl)-2-methoxypyridine] were, in that order, 2.7 µM, 17.3 µM, 38.8 µM and 0.025 µM.
The like results for `COCc1nnc(N2CC(N3CCOc4cc(F)ccc43)C2)n1-c1ccc(OC)nc1` [Example 24, 7-Fluoro-4-(1-(5-(methoxymethyl)-4-(6-methoxypyridin-3-yl)-4H-1,2,4-triazol-3-yl)azetidin-3-yl)-3,4-dihydro-2H-benzo[b][1,4]oxazine] were, in that order, 10.7 µM, 67.2 µM, 44.1 µM and 0.1 µM.
In the case of `CCOCc1nnc(N2CC(N3CCCc4cc(F)ccc43)C2)n1-c1ccc(OC)nc1` [Example 26, 1-(1-(5-(Ethoxymethyl)-4-(6-methoxypyridin-3-yl)-4H-1,2,4-triazol-3-yl)azetidin-3-yl)-6-fluoro-1,2,3,4-tetrahydroquinoline], the IC50 came to 1.4 µM against human V2R, 61 µM on human V1bR and 0.007 µM at human OTR.
The like results for `CCOCc1nnc(N2CC(N3CCCc4cc(F)ccc43)C2)n1-c1ccc2c(c1)OCO2` [Example 27, 1-(1-(4-(Benzo[d][1,3]dioxolan-5-yl)-5-(ethoxymethyl)-4H-1,2,4-triazol-3-yl)azetidin-3-yl)-6-fluoro-1,2,3,4-tetrahydroquinoline] were, in that order, 9.1 µM, 13.9 µM and 0.008 µM.
Regarding `COc1ccc(-n2c(C)nnc2N2CC(N3CCCc4cc(F)ccc43)C2)cn1` [Example 29, 6-Fluoro-1-(1-(4-(6-methoxypyridin-3-yl)-5-methyl-4H-1,2,4-triazol-3-yl)azetidin-3-yl)-1,2,3,4-tetrahydroquinoline], the IC50 came out at 6.2 µM at human V1aR, 12.1 µM on human V2R, 95.1 µM at human V1bR and 0.064 µM on human OTR.
The like results for `COCc1nnc(N2CC(N3CCCc4cc(F)ccc43)C2)n1-c1ccc(OC)nc1` [Example 30, 6-Fluoro-1-(1-(5-(methoxymethyl)-4-(6-methoxypyridin-3-yl)-4H-1,2,4-triazol-3-yl)azetidin-3-yl)-1,2,3,4-tetrahydroquinoline] were, in that order, 8.5 µM, 6.7 µM, 20.7 µM and 0.004 µM.
In the case of `CCOCc1nnc(N2CC(N3CCOc4cc(F)ccc43)C2)n1-c1ccc(OC)nc1` [Example 31, 4-(1-(5-(Ethoxymethyl)-4-(6-methoxypyridin-3-yl)-4H-1,2,4-triazol-3-yl)azetidin-3-yl)-7-fluoro-3,4-dihydro-2H-benzo[b][1,4]oxazine], the IC50 was 3.5 µM on human V1aR, 5.8 µM against human V2R, 54.5 µM on human V1bR and 0.079 µM on human OTR.
